Source: ChEMBL document CHEMBL1909574, “Acid mediated formation of an N-acyliminium ion from tubulysins: a new methodology for the synthesis of natural tubulysins and their analogs” (Bioorg Med Chem Lett, 2011)
pIC50: −log10 of the molar value.

Tested on: KB
Experiment: Growth inhibition of human KB cells by [3H]thymidine incorporation assay
Format: functional, cell-based

Structure (SMILES) | pIC50 (Homo sapiens, KB) | pIC50 (kb)
CCCC(=O)OCN(C(=O)[C@@H](NC(=O)[C@H]1CCCCN1C)[C@@H](C)CC)[C@H](C[C@@H](OC(C)=O)c1nc(C(=O)N[C@@H](Cc2ccc(O)cc2)C[C@H](C)C(=O)O)cs1)C(C)C [TUBULYSIN B] | 8.70 | –
CC[C@H](C)[C@H](NC(=O)[C@H]1CCCCN1C)C(=O)N(COCCC(C)C)[C@H](C[C@@H](OC(C)=O)c1nc(C(=O)N[C@@H](Cc2ccc(O)cc2)C[C@H](C)C(=O)O)cs1)C(C)C | 7.92 | –
CCCOCN(C(=O)[C@@H](NC(=O)[C@H]1CCCCN1C)[C@@H](C)CC)[C@H](C[C@@H](OC(C)=O)c1nc(C(=O)N[C@@H](Cc2ccc(O)cc2)C[C@H](C)C(=O)O)cs1)C(C)C | 8.85 | –
CC[C@H](C)[C@H](NC(=O)[C@H]1CCCCN1C)C(=O)N(COC)[C@H](C[C@@H](OC(C)=O)c1nc(C(=O)N[C@@H](Cc2ccc(O)cc2)C[C@H](C)C(=O)O)cs1)C(C)C | 8.05 | –
CCCCCSCN(C(=O)[C@@H](NC(=O)[C@H]1CCCCN1C)[C@@H](C)CC)[C@H](C[C@@H](OC(C)=O)c1nc(C(=O)N[C@@H](Cc2ccc(O)cc2)C[C@H](C)C(=O)O)cs1)C(C)C | 9.10 | –
CCSCN(C(=O)[C@@H](NC(=O)[C@H]1CCCCN1C)[C@@H](C)CC)[C@H](C[C@@H](OC(C)=O)c1nc(C(=O)N[C@@H](Cc2ccc(O)cc2)C[C@H](C)C(=O)O)cs1)C(C)C | 8.70 | –
CCCSCN(C(=O)[C@@H](NC(=O)[C@H]1CCCCN1C)[C@@H](C)CC)[C@H](C[C@@H](OC(C)=O)c1nc(C(=O)N[C@@H](Cc2ccc(O)cc2)C[C@H](C)C(=O)O)cs1)C(C)C | 8.85 | –
CC[C@H](C)[C@H](NC(=O)[C@H]1CCCCN1C)C(=O)N(CNC(=O)CC(C)C)[C@H](C[C@@H](OC(C)=O)c1nc(C(=O)N[C@@H](Cc2ccc(O)cc2)C[C@H](C)C(=O)O)cs1)C(C)C | 8.10 | –
CC[C@@H](C)[C@H](NC(=O)[C@H]1CCCCN1C)C(=O)N(COC(=O)CC(C)C)[C@H](C[C@@H](OC(C)=O)c1nc(C(=O)N[C@@H](Cc2ccc(O)cc2)C[C@H](C)C(=O)O)cs1)C(C)C [TUBULYSIN A] | – | 9.00
CCCCSCN(C(=O)[C@@H](NC(=O)[C@H]1CCCCN1C)[C@@H](C)CC)[C@H](C[C@@H](OC(C)=O)c1nc(C(=O)N[C@@H](Cc2ccc(O)cc2)C[C@H](C)C(=O)O)cs1)C(C)C | 9.15 | –
C=CCCN(C(=O)[C@@H](NC(=O)[C@H]1CCCCN1C)[C@@H](C)CC)[C@H](C[C@@H](OC(C)=O)c1nc(C(=O)N[C@@H](Cc2ccc(O)cc2)C[C@H](C)C(=O)O)cs1)C(C)C | 8.89 | –
CC[C@H](C)[C@H](NC(=O)[C@H]1CCCCN1C)C(=O)N(CSCCO)[C@H](C[C@@H](OC(C)=O)c1nc(C(=O)N[C@@H](Cc2ccc(O)cc2)C[C@H](C)C(=O)O)cs1)C(C)C | 7.59 | –
CC[C@H](C)[C@H](NC(=O)[C@H]1CCCCN1C)C(=O)N(COCCO)[C@H](C[C@@H](OC(C)=O)c1nc(C(=O)N[C@@H](Cc2ccc(O)cc2)C[C@H](C)C(=O)O)cs1)C(C)C | 7.74 | –
CC[C@H](C)[C@H](NC(=O)[C@H]1CCCCN1C)C(=O)N(CSCCS)[C@H](C[C@@H](OC(C)=O)c1nc(C(=O)N[C@@H](Cc2ccc(O)cc2)C[C@H](C)C(=O)O)cs1)C(C)C | 7.59 | –
